Measured values: patent publication US8338401B2, “Coumarin-amide derivatives and its preparation, said drug composition and its use” (Institute of Materia Medica Chinese Academy of Medical …, priority 2002, dated 2012)
In brackets after ≈: the same amount, converted by molar mass. Where two headings read alike, the source gives them in different places.

What was measured:
[1] = test system: chronic renal failure induced by 5/6 nephrectomy in rats; format: in vivo, Male Wistar rats
Procedure: The model on chronic renal failure induced by partial renal ablation in rats was set up according to the Guidelines of Pre-clinic Research for New Drugs. Male Wistar rats with initial body weights of 200 g, anesthetized with 35 mg/kg of pentobarbital i.p., the right kidney was removed, and the upper and lower pole […] of the left kidney were resected, stop bleeding, closed the abdominal and sutured. Four weeks following surgery, the BUN, creatinine and urinary protein in rats were determined. […] Rats were randomly divided into seven groups, 30/group, with sham, model, Benazepril (4 mg/kg/day) and Losartan (10 mg/kg/day) as positive control, and compound 149 groups (7.5 mg/kg/day, 15 mg/kg/day and 30 mg/kg/day, respectively). All the groups were administered intragastrically, once per day and 6 (six) times per week, till 16 weeks post surgery. Body weights were weighed to observe the growth of the rats. The above indexes were determined every 4 weeks up to the 16th week following the initiation of drug administration, and at each time, a number of animals were sacrificed and the kidneys were harvested for pathological analysis. Pathological lesions in chronic renal failure models are mainly glomerulosclerosis and interstitial fibrosis. According to the damage extents, glomerulosclerosis is divided into five grades (0 IV). 0 grade means no glomerulus pathological changes at all, and IV grade means ultimately glomerular sclerosis and glassy pathological changes.

[2] = test system: kidney tubulointerstitial fibrosis caused by unilateral ureteral obstruction (UUO) in rats; test: Inhibition of kidney tubulointerstitial fibrosis caused by unilateral ureteral obstruction (UUO) in rats; format: in vivo, Male Wistar rats; settings: UUO rats; for BUN: oral for 16 days
Procedure: Male Wistar rats with initial body weights of 180˜230 g were used. Unilateral ureteral obstruction was performed under pentobarbital anesthesia (35 mg/kg) and sterile conditions. Via a midline incision, the left ureteral was ligated. Sham surgery was performed by making a midline incision but leaving ureteral intact. Following surgery, rats were randomly divided into sham, model, Benazepril (4 mg/kg/day) and Losartan (10 mg/kg/day) as positive control, and compound 149 (5 mg/kg/day, 10 mg/kg/day and 20 mg/kg/day). Starting 2 day before surgery, Benazepril, Losartan and compound 149 were administered for 16 days orally. BUN and creatinine in serum were determined in the 11th and 16th day (Table 6) following initiation of Benazepril, Losartan and compound 149 treatment, at which time animals were killed and the kidneys were harvested. Tissues were dissected, weighed, fixed in 10% formaldehyde and embedded in paraffin wax for pathological analysis.

[3] = test system: TGF-β receptor; test: TGF-β receptor binding antagonism assay ([125I]TGF-β1) in Balb/c 3T3 cells; settings: for Inhibition Rate (%): 10 μg/ml, 50 pmol/L [125I]TGF-β1
Procedure: Balb/c 3T3 cells were seeded in 24 well-plate and cultured in Dulbecco's modified Eagle's medium (DMEM) supplemented with 10% fetal bovine serum, in 37° C. and 5% CO2, for 2-4 days. When cells were at a near-confluent, medium was changed to the binding buffer (50 mmol/L HEPES containing NaCl, KCl, MgSO4 and CaCl2). The assay was initiated by addition of 50 pmol/L [^125I]TGF-β1 and test compounds. After incubation for 210-240 minutes, the medium was removed, and cells were washed with ice-cold binding buffer. Non-specific bindings in the presence of 10 nmol/L TGF-β1 were determined. The cells were then solubilized using buffer containing Triton X-100 and the radioactivity was measured (see Table 4).

[4] = 8th week after administration (12 weeks after nephrectomy), 10 mg/kg
[5] = 8th week after administration (12 wk after nephrectomy), 10 mg/kg
[6] = 12th week after administration (16 weeks after nephrectomy), 10 mg/kg
[7] = 12th week after administration (16 wk after nephrectomy), 10 mg/kg
[8] = 8th week after administration (12 weeks after nephrectomy), 4 mg/kg
[9] = 8th week after administration (12 wk after nephrectomy), 4 mg/kg
[10] = 12th week after administration (16 weeks after nephrectomy), 4 mg/kg
[11] = 12th week after administration (16 wk after nephrectomy), 4 mg/kg
[12] = 16 weeks after nephrectomy (12 weeks since administration), 4 mg/kg/day

CCOC(=O)c1cc2cc(CC)c(O)c([N+](=O)[O-])c2oc1=O [Compound 233, 3-ethoxycarbonyl-6-ethyl-7-hydroxy-8-nitro-coumarin]
melting point: 143 °C

CCCCc1nc(Cl)c(CO)n1Cc1ccc(-c2ccccc2-c2nn[nH]n2)cc1 [Losartan, reference compound]
BUN [1, 4]: 25.64 ± 5.116 mg/dL
serum creatinine (Scr.) [1, 4]: 2.34 ± 0.268 mg/dL
AII (Angiotensin II) [1, 5]: 96.7 ± 32.1 pg/mL
UP (urinary protein) [1, 5]: 32.7 ± 10.3 mg/day
serum TGF-β1 [1, 5]: 18.7 ± 9.2 ng/mL
Glomerulosclerosis Grade (%): 0 ([1]; 8 wk after ad., 10 mg/kg/day): 54.4 ± 29.2 %
Glomerulosclerosis Grade (%): I ([1]; 8 wk after ad., 10 mg/kg/day): 31.9 ± 20.0%
Glomerulosclerosis Grade (%): II ([1]; 8 wk after ad., 10 mg/kg/day): 13.7 ± 14.0%
Glomerulosclerosis Grade (%): III ([1]; 8 wk after ad., 10 mg/kg/day): 1.1 ± 3.3 %
Glomerulosclerosis Grade (%): IV ([1]; 8 wk after ad., 10 mg/kg/day): 0%
Glomerulosclerosis Total Grade ([1]; 8 wk after ad., 10 mg/kg/day): 2.8 ± 1.0
BUN [1, 6]: 37.84 ± 5.672 mg/dL
serum creatinine (Scr.) [1, 6]: 2.21 ± 0.48 mg/dL
AII (Angiotensin II) [1, 7]: 38.9 ± 17.4 pg/mL
UP (urinary protein) [1, 7]: 39.3 ± 14.2 mg/day
serum TGF-β1 [1, 7]: 11.8 ± 12.6 ng/mL
Glomerulus pathological scores, compared with the model group ([1]; 12 weeks after nephrectomy (8 weeks since administration), compound 149 30 mg/kg, Losartan 10 mg/kg/day): less than that of the model group significantly
rates of 0 grade glomerylus in residual kidney, compared with the model group ([1]; 12 weeks after nephrectomy (8 weeks since administration), compound 149 30 mg/kg, Losartan 10 mg/kg/day, P<0.05): higher than that of the model group with significant difference
Glomerulosclerosis Grade (%): 0 ([1]; 12 wk after ad., 10 mg/kg/day): 0%
Glomerulosclerosis Grade (%): I ([1]; 12 wk after ad., 10 mg/kg/day): 10.0 ± 2.9%
Glomerulosclerosis Grade (%): II ([1]; 12 wk after ad., 10 mg/kg/day): 45.7 ± 17.7%
Glomerulosclerosis Grade (%): III ([1]; 12 wk after ad., 10 mg/kg/day): 41.9 ± 25.6%
Glomerulosclerosis Grade (%): IV ([1]; 12 wk after ad., 10 mg/kg/day): 2.8 ± 4.8%
Glomerulosclerosis Total Grade ([1]; 12 wk after ad., 10 mg/kg/day): 7.2 ± 1.3
number of grade III glomerulus, compared with the model group ([1]; 16 weeks after nephrectomy (12 weeks since administration), compound 149 30 mg/kg (P<0.01), Losartan 10 mg/kg/day (P<0.05)): less than that of the model group significantly
inflammatory cell infiltration and tubulointerstitial fibrosis (pathological changes) [2]: significantly attenuated
BUN ([2]; 10.0 mg/kg): 23.88 ± 2.94 mg/dL

COc1cc2oc(=O)c(C(=O)Nc3ccc(S(=O)(=O)NC(=N)N)cc3)cc2cc1Cl [Compound 92, 3-(4′-guanidinosulfonylphenylamidocarbonyl)-6-chloro-7-methoxy-coumarin]
Inhibition Rate (%) [3]: 106.4%

COc1ccc2cc(C(=O)Nc3ccc(S(=O)(=O)Nc4cc(C)on4)cc3)c(=O)oc2c1C [Compound 55]
Inhibition Rate (%) [3]: 52.3%

CCOC(=O)c1cc2cc([N+](=O)[O-])c(O)c([N+](=O)[O-])c2oc1=O
melting point: 176 °C

COc1ccc2cc(C(=O)Nc3cccc(C(=O)O)c3)c(=O)oc2c1 [Compound 2, 3-(m-carboxyphenylamidocarbonyl)-7-methoxycoumarin]
IC50 [3]: 13.8 µg/mL (≈ 40.7 µM)
Inhibition Rate (%) [3]: 74.1%
melting point: > 300 °C

CCOC(=O)c1cc2cc(Cl)c(O)c([N+](=O)[O-])c2oc1=O [Compound 241, 3-ethoxycarbonyl-6-chloro-7-hydroxy-8-nitro-coumarin]
melting point: 195 °C

COc1cc2oc(=O)c(C(=O)Nc3ccc(C(=O)O)c(O)c3)cc2cc1Cl [Compound 87, 3-(3′-hydroxy-4′-carboxy-phenylamidocarbonyl)-6-chloro-7-methoxy-coumarin]
Inhibition Rate (%) [3]: 91.1%

COc1ccc2cc(-c3nnc(-c4ccccc4)o3)c(=O)oc2c1 [Compound 206, 3-(2′-phenyl-1′,3′,4′-oxadiazol-5′yl)-7-methoxycoumarin]
Inhibition Rate (%) [3]: −0.7%

CCOC(=O)c1cc2cc([N+](=O)[O-])c(OC)c([N+](=O)[O-])c2oc1=O
melting point: 152 °C

CCOC(=O)c1cc2cc([N+](=O)[O-])c(OC)c(OC)c2oc1=O [Compound 227, 3-ethoxycarbonyl-6-nitro-7,8-dimethoxy-coumarin]
melting point: 191 °C

CCOC(=O)[C@H](CCc1ccccc1)N[C@H]1CCc2ccccc2N(CC(=O)O)C1=O [Benazepril, reference compound]
BUN [1, 8]: 37.66 ± 8.895 mg/dL
serum creatinine (Scr.) [1, 8]: 3.54 ± 1.140 mg/dL
AII (Angiotensin II) [1, 9]: 74.3 ± 13.2 pg/mL
UP (urinary protein) [1, 9]: 51.1 ± 23.6 mg/day
serum TGF-β1 [1, 9]: 40.9 ± 26.6 ng/mL
Glomerulosclerosis Grade (%): 0 ([1]; 8 wk after ad., 4 mg/kg/day): 12.2 ± 19.0%
Glomerulosclerosis Grade (%): I ([1]; 8 wk after ad., 4 mg/kg/day): 29.6 ± 23.9%
Glomerulosclerosis Grade (%): II ([1]; 8 wk after ad., 4 mg/kg/day): 28.1 ± 18.1%
Glomerulosclerosis Grade (%): III ([1]; 8 wk after ad., 4 mg/kg/day): 19.6 ± 24.2%
Glomerulosclerosis Grade (%): IV ([1]; 8 wk after ad., 4 mg/kg/day): 5.9 ± 11.2%
Glomerulosclerosis Total Grade ([1]; 8 wk after ad., 4 mg/kg/day): 5.5 ± 2.6
BUN [1, 10]: 39.48 ± 7.109 mg/dL
serum creatinine (Scr.) [1, 10]: 2.28 ± 0.70 mg/dL
AII (Angiotensin II) [1, 11]: 47.8 ± 12.0 pg/mL
UP (urinary protein) [1, 11]: 66.3 ± 31.9 mg/day
serum TGF-β1 [1, 11]: 12.8 ± 14.8 ng/mL
inflammatory cell infiltration in kidney tissues ([1]; 12 weeks after nephrectomy (8 weeks since administration), 4 mg/kg/day, some animals): severe
Glomerulosclerosis Grade (%): 0 ([1]; 12 wk after ad., 4 mg/kg/day): 0%
Glomerulosclerosis Grade (%): I ([1]; 12 wk after ad., 4 mg/kg/day): 0%
Glomerulosclerosis Grade (%): II ([1]; 12 wk after ad., 4 mg/kg/day): 19.1 ± 27.1%
Glomerulosclerosis Grade (%): III ([1]; 12 wk after ad., 4 mg/kg/day): 46.2 ± 15.6%
Glomerulosclerosis Grade (%): IV ([1]; 12 wk after ad., 4 mg/kg/day): 34.8 ± 29.9%
Glomerulosclerosis Total Grade ([1]; 12 wk after ad., 4 mg/kg/day): 9.8 ± 1.4
glomerulus pathological score, rank among groups [1, 12]: the highest
inflammatory cell infiltration in kidney matrix [1, 12]: medium-severe
inflammatory cell infiltration and tubulointerstitial fibrosis (pathological changes) [2]: more significant
animals with focal abscess formations in the medulla of kidney ([2]; 4 mg/kg/day): 4/7
BUN ([2]; 4.0 mg/kg): 20.99 ± 1.58 mg/dL

COc1ccc2cc(C(=O)Nc3ccc(C(=O)O)c(O)c3)c(=O)oc2c1 [Compound 7, 3-(3′-hydroxy-4′-carboxyphenylamidocarbonyl)-7-methoxy coumarin]
IC50 [3]: 7.8 µg/mL (≈ 22 µM)
Inhibition Rate (%) [3]: 94.2%
melting point: 279 °C (dec.)

COc1ccc2cc(C(=O)Nc3ccc(S(=O)(=O)NC(=N)N)cc3)c(=O)oc2c1OC [Compound 66, 3-(4′-guanidinosulfonylphenylamidocarbonyl)-7,8-dimethoxy-coumarin]
Inhibition Rate (%) [3]: 52.3%

COc1cc2oc(=O)c(C(=O)Nc3ccc(O)c(C(=O)O)c3)cc2cc1Cl [Compound 88, 3-(3′-carboxy-4′-hydroxy-phenylamidocarbonyl)-6-chloro-7-methoxy-coumarin]
IC50 [3]: 5.3 µg/mL (≈ 13.6 µM)
Inhibition Rate (%) [3]: 111.2%
melting point: > 300 °C

COc1cc2oc(=O)c(C(=O)Nc3ccc(C(=O)O)c(O)c3)cc2cc1Br [Compound 96, 3-(3′-hydroxy-4′-carboxy-phenylamidocarbonyl)-6-bromo-7-methoxy-coumarin]
Inhibition Rate (%) [3]: 82.3%

CCc1cc2cc(C(=O)Nc3ccc(O)c(C(=O)O)c3)c(=O)oc2cc1OC [Compound 27, 3-(3′-carboxy-4′-hydroxy-phenylamidocarbonyl)-6-ethyl-7-methoxy-coumarin]
Inhibition Rate (%) [3]: 77.2%

CCc1cc2cc(C(=O)Nc3ccc(C(=O)O)c(O)c3)c(=O)oc2cc1OC [Compound 26, 3-(3′-hydroxy-4′-carboxy-phenylamidocarbonyl)-6-ethyl-7-methoxy-coumarin]
IC50 [3]: 8.5 µg/mL (≈ 22.2 µM)
Inhibition Rate (%) [3]: 95.4%
melting point: 266 °C
